Results: ChEMBL document CHEMBL1137624, “Synthesis and characterization of pyrrolidine derivatives as potent agonists of the human melanocortin-4 receptor” (Bioorg Med Chem Lett, 2007)
Active and inactive are the calls of the source. No cut-off for these calls is given here.

What was measured:
[1] = target: T1, Melanocortin receptor 4 (Homo sapiens, UniProt P32245); assay: Intrinsic activity at human MC4 receptor expressed in CHO cells assessed as cAMP accumulation relative to alpha-MSH; format: functional, cell-based
[2] = target: T1, Melanocortin receptor 4; assay: Displacement of [125I]NDP-MSH from human MC4 receptor expressed in HEK293 cells; format: cell-based
[3] = target: Melanocyte-stimulating hormone receptor (Homo sapiens, UniProt Q01726); assay: Binding affinity at human MC1 receptor at 10 uM
[4] = target: T1, Melanocortin receptor 4; assay: Antagonist activity at human MC4 receptor expressed in CHO cells assessed as inhibition of alpha-MSH-stimulated of cAMP production by ELISA; format: functional, cell-based
[5] = target: Melanocortin receptor 5 (Homo sapiens, UniProt P33032); assay: Binding affinity at human MC5 receptor
[6] = target: Melanocortin receptor 3 (Homo sapiens, UniProt P41968); assay: Binding affinity at human MC3 receptor
[7] = target: T1, Melanocortin receptor 4; assay: Agonist activity at human MC4 receptor expressed in CHO cells assessed as cAMP accumulation by ELISA; format: functional, cell-based
[8] = tested on: Rattus norvegicus; assay: Decrease in cumulative food intake in high-fat diet fed CD rat at 5 mg/kg, ip after 1 to 6 hrs; format: functional, organism-based; design: dose 5 mg/kg

T1 sequence (P32245 whole entry): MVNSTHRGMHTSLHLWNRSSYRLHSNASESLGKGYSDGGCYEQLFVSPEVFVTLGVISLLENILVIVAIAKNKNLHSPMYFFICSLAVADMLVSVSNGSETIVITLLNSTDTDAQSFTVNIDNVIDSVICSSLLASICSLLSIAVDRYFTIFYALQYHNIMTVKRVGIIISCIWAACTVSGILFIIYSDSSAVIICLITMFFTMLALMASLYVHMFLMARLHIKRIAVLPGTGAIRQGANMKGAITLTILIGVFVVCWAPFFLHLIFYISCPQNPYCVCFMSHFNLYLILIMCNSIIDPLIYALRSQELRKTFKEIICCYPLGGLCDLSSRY
Chain of Melanocortin receptor 5 (P33032 whole entry): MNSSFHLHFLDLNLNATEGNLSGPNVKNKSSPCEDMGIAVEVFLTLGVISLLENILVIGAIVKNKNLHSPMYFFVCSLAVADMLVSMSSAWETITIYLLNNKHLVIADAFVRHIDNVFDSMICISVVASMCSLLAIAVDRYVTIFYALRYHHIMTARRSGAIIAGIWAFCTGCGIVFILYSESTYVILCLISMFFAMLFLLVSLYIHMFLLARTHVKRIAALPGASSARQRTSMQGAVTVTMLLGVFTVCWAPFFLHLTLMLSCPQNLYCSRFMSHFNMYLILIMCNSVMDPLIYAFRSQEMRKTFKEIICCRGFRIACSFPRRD
Chain of Melanocyte-stimulating hormone receptor (Q01726 whole entry, looked up): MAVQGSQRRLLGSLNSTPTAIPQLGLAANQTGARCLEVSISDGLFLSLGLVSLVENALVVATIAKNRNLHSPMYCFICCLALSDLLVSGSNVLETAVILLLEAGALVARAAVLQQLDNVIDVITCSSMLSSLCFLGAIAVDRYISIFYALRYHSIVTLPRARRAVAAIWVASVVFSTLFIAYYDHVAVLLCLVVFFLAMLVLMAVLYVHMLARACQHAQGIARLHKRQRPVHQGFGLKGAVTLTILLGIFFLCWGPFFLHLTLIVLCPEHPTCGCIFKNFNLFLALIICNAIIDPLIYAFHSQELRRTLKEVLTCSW
Chain of Melanocortin receptor 3 (P41968 whole entry): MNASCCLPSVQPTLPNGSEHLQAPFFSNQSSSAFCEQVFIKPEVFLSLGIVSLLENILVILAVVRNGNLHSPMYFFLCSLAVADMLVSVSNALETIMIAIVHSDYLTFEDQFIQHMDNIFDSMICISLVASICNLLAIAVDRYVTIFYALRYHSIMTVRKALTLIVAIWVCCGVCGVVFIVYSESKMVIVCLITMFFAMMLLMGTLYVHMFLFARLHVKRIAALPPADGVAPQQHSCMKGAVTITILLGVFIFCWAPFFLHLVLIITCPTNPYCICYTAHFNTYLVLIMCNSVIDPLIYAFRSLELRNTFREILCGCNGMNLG

Cc1ccc(N2CCN(C(=O)C3CN(C4CCOCC4)CC3c3ccc(Cl)cc3)CC2)c([C@@H](N)C(C)C)c1 (stereo partly drawn)
Intrinsic activity [1]: 36%
Ki [2]: 12 nM

CC(C)C[C@H](N)c1cc(C(F)(F)F)ccc1N1CCN(C(=O)[C@@H]2CN(C(=O)c3ccccc3)C[C@H]2c2ccc(Cl)cc2)CC1
Intrinsic activity [1]: 3%
Ki [2]: 30 nM

CC(C)C[C@H](N)c1cc(C(F)(F)F)ccc1N1CCN(C(=O)[C@@H]2CNC[C@H]2c2ccc(Cl)cc2)CC1
Intrinsic activity [1]: 34%
Ki [2]: 82 nM

COCC(COC)N1C[C@@H](C(=O)N2CCN(c3ccc(C)cc3[C@@H](N)C(C)C)CC2)[C@H](c2ccc(Cl)cc2)C1
Intrinsic activity [1]: 27%
Ki [2]: 200 nM

Cc1ccc(N2CCN(C(=O)[C@H]3CN(C4CCOCC4)C[C@@H]3c3ccc(Cl)cc3)CC2)c([C@@H](N)C(C)C)c1
Intrinsic activity [1]: 18%
inhibition [3]: 33%
IC50 [4]: 65 nM
Ki [5]: 380 nM
Ki [2]: 8.6 nM
Ki [6]: 1400 nM

CC(C)C[C@H](N)c1cc(C(F)(F)F)ccc1N1CCN(C(=O)[C@@H]2CN(S(C)(=O)=O)C[C@H]2c2ccc(Cl)cc2)CC1
Intrinsic activity [1]: 34%
Ki [2]: 95 nM

CC(C)[C@H](N)c1cccc(F)c1N1CCN(C(=O)[C@@H]2CN(C(=O)C(C)(C)C)C[C@H]2c2ccc(Cl)cc2)CC1
Ki [2]: 540 nM

CC(=O)N1C[C@@H](C(=O)N2CCN(c3ccc(C(F)(F)F)cc3[C@@H](N)CC(C)C)CC2)[C@H](c2ccc(Cl)cc2)C1
Intrinsic activity [1]: 72%
Ki [2]: 66 nM
EC50 [7]: 1900 nM

CCN1CCC(N2C[C@@H](C(=O)N3CCN(c4ccc(C)cc4[C@@H](N)C(C)C)CC3)[C@H](c3ccc(Cl)cc3)C2)CC1
Intrinsic activity [1]: 3%
Ki [2]: 18 nM

Cc1ccc(N2CCN(C(=O)[C@@H]3CN(C(=O)CCCc4ccccc4)C[C@H]3c3ccc(Cl)cc3)CC2)c([C@@H](N)C(C)C)c1
Intrinsic activity [1]: 0%
Ki [2]: 100 nM

Cc1ccc(N2CCN(C(=O)[C@@H]3CN(C4CCN(C(C)C)CC4)C[C@H]3c3ccc(Cl)cc3)CC2)c([C@@H](N)C(C)C)c1
Intrinsic activity [1]: 1%
Ki [2]: 18 nM

CC(C)[C@H](N)c1cccc(F)c1N1CCN(C(=O)[C@@H]2CN(CCC(F)(F)F)C[C@H]2c2ccc(Cl)cc2)CC1
Ki [2]: 205 nM

Cc1ccc(N2CCN(C(=O)[C@@H]3CN(C4CCCCC4)C[C@H]3c3ccc(Cl)cc3)CC2)c([C@@H](N)C(C)C)c1
Intrinsic activity [1]: 21%
Ki [2]: 6.6 nM

CC(C)C[C@H](N)c1cc(C(F)(F)F)ccc1N1CCN(C(=O)[C@@H]2CN(CCN)C[C@H]2c2ccc(Cl)cc2)CC1
Intrinsic activity [1]: 37%
Ki [2]: 180 nM

CC(C)C[C@H](N)c1cc(C(F)(F)F)ccc1N1CCN(C(=O)[C@@H]2CN(c3ccccc3)C[C@H]2c2ccc(Cl)cc2)CC1
Intrinsic activity [1]: 24%
Ki [2]: 260 nM

CC(C)[C@H](N)c1cccc(F)c1N1CCN(C(=O)[C@@H]2CN(CCO)C[C@H]2c2ccc(Cl)cc2)CC1
Ki [2]: 580 nM

Cc1ccc(N2CCN(C(=O)[C@@H]3CN(C(=O)C4CCC4)C[C@H]3c3ccc(Cl)cc3)CC2)c([C@@H](N)C(C)C)c1
Intrinsic activity [1]: 22%
Ki [2]: 78 nM

CC(C)C[C@H](N)c1cc(C(F)(F)F)ccc1N1CCN(C(=O)[C@@H]2CN(C(=O)CN)C[C@H]2c2ccc(Cl)cc2)CC1
Intrinsic activity [1]: 12%
Ki [2]: 96 nM

COc1ccc([C@@H]2CN(C(C)C)C[C@H]2C(=O)N2CCN(c3ccc(C(F)(F)F)cc3[C@@H](N)CC(C)C)CC2)cc1
Intrinsic activity [1]: 67%
Ki [2]: 67 nM
EC50 [7]: 450 nM

CC(C)[C@H](N)c1cccc(F)c1N1CCN(C(=O)[C@@H]2CN(C(=O)C3CCCCC3)C[C@H]2c2ccc(Cl)cc2)CC1
Ki [2]: 350 nM

CC(C)[C@H](N)c1cccc(F)c1N1CCN(C(=O)[C@@H]2CN(C(C)C)C[C@H]2c2ccc(Cl)cc2)CC1
Intrinsic activity [1]: 86%

CC(C)[C@H](N)c1cccc(F)c1N1CCN(C(=O)[C@@H]2CN(C)C[C@H]2c2ccc(Cl)cc2)CC1
Ki [2]: 81 nM

COCC(C)N1C[C@@H](C(=O)N2CCN(c3ccc(C)cc3[C@@H](N)C(C)C)CC2)[C@H](c2ccc(Cl)cc2)C1 (stereo partly drawn)
Intrinsic activity [1]: 36%
Ki [2]: 64 nM

Cc1ccc(N2CCN(C(=O)[C@@H]3CN(C(=O)CCCCc4ccccc4)C[C@H]3c3ccc(Cl)cc3)CC2)c([C@@H](N)C(C)C)c1
Intrinsic activity [1]: 0%
Ki [2]: 65 nM

CC(=O)N1C[C@@H](C(=O)N2CCN(c3c(F)cccc3[C@@H](N)C(C)C)CC2)[C@H](c2ccc(Cl)cc2)C1
Ki [2]: 220 nM

CC(C)CN1C[C@@H](C(=O)N2CCN(c3c(F)cccc3[C@@H](N)C(C)C)CC2)[C@H](c2ccc(Cl)cc2)C1
Intrinsic activity [1]: 52%
Ki [2]: 43 nM
EC50 [7]: 1400 nM

CC(C)[C@H](N)c1cccc(F)c1N1CCN(C(=O)[C@@H]2CN(Cc3ccccc3)C[C@H]2c2ccc(Cl)cc2)CC1
Intrinsic activity [1]: 22%
Ki [2]: 340 nM

CC(=O)N1C[C@@H](C(=O)N2CCN(c3ccc(C)cc3[C@@H](N)C(C)C)CC2)[C@H](c2ccc(Cl)cc2)C1
Intrinsic activity [1]: 35%
Ki [2]: 110 nM

Cc1ccc(N2CCN(C(=O)[C@@H]3CN(C4CCN(CC(C)C)CC4)C[C@H]3c3ccc(Cl)cc3)CC2)c([C@@H](N)C(C)C)c1
Intrinsic activity [1]: 1%
IC50 [4]: 1800 nM
Ki [2]: 5.4 nM

CC(C)C[C@H](N)c1cc(C(F)(F)F)ccc1N1CCN(C(=O)[C@@H]2CN(Cc3ccccc3)C[C@H]2c2ccc(Cl)cc2)CC1
Intrinsic activity [1]: 52%
Ki [2]: 120 nM
EC50 [7]: 7300 nM

CC(C)[C@H](N)c1cccc(F)c1N1CCN(C(=O)C2CN(Cc3ccccc3)CC2c2ccc(Cl)cc2)CC1 (stereo partly drawn)
Intrinsic activity [1]: 19%
Ki [2]: 94 nM

Cc1ccc(N2CCN(C(=O)[C@@H]3CN(C(=O)CCc4ccccc4)C[C@H]3c3ccc(Cl)cc3)CC2)c([C@@H](N)C(C)C)c1
Intrinsic activity [1]: 0%
Ki [2]: 75 nM

CC(C)C(=O)N1C[C@@H](C(=O)N2CCN(c3c(F)cccc3[C@@H](N)C(C)C)CC2)[C@H](c2ccc(Cl)cc2)C1
Ki [2]: 250 nM

CCNC(C)Cc1cccc(C(F)(F)F)c1 (stereo not drawn)
Activity [8]: Active

Cc1ccc(N2CCN(C(=O)[C@@H]3CN(C(=O)OC(C)(C)C)C[C@H]3c3ccc(Cl)cc3)CC2)c([C@@H](N)C(C)C)c1
Intrinsic activity [1]: 0%
Ki [2]: 15 nM

CC(C)[C@H](N)c1cccc(F)c1N1CCN(C(=O)[C@@H]2CN(C3CCCC3)C[C@H]2c2ccc(Cl)cc2)CC1
Intrinsic activity [1]: 80%
Ki [2]: 26 nM
EC50 [7]: 400 nM

CC(C)[C@H](N)c1cccc(F)c1N1CCN(C(=O)[C@@H]2CN(C3CCC3)C[C@H]2c2ccc(Cl)cc2)CC1
Ki [2]: 32 nM

CCCC(=O)N1C[C@@H](C(=O)N2CCN(c3c(F)cccc3[C@@H](N)C(C)C)CC2)[C@H](c2ccc(Cl)cc2)C1
Ki [2]: 260 nM

CC(C)[C@H](N)c1cc(C(F)(F)F)ccc1N1CCN(C(=O)CCc2ccc(Cl)cc2Cl)CC1
Ki [2]: 74 nM

CCC(=O)N1C[C@@H](C(=O)N2CCN(c3ccc(C)cc3[C@@H](N)C(C)C)CC2)[C@H](c2ccc(Cl)cc2)C1
Intrinsic activity [1]: 31%
Ki [2]: 59 nM

CC(C)[C@H](N)c1cc(C(F)(F)F)ccc1N1CCN(C(=O)[C@@H](Cc2ccc(Cl)cc2Cl)N2CCCC2=O)CC1
Ki [2]: 4.5 nM

CC(C)[C@H](N)c1cc(C(F)(F)F)ccc1N1CCN(C(=O)[C@H](C)Cc2ccc(Cl)cc2Cl)CC1
Ki [2]: 26 nM

CC(C)[C@H](N)c1cccc(F)c1N1CCN(C(=O)[C@@H]2CN(C(=O)c3ccccc3)C[C@H]2c2ccc(Cl)cc2)CC1
Ki [2]: 160 nM

CC(C)C[C@H](N)c1cc(C(F)(F)F)ccc1N1CCN(C(=O)[C@@H]2CN(C(=O)OC(C)(C)C)C[C@H]2c2ccc(Cl)cc2)CC1
Intrinsic activity [1]: 32%
Ki [2]: 390 nM

CC(C)[C@H](N)c1cc(C(F)(F)F)ccc1N1CCN(C(=O)[C@@H]2CN(Cc3ccccc3)C[C@H]2c2ccc(Cl)cc2Cl)CC1
Ki [2]: 610 nM

CC(C)[C@H](N)c1cccc(F)c1N1CCN(C(=O)[C@@H]2CN(C3CCCCC3)C[C@H]2c2ccc(Cl)cc2)CC1
Intrinsic activity [1]: 49%
Ki [2]: 9.3 nM

CC(C)[C@H](N)c1cccc(F)c1N1CCN(C(=O)[C@@H]2CN(C(=O)C3CC3)C[C@H]2c2ccc(Cl)cc2)CC1
Ki [2]: 31 nM

Cc1ccc(N2CCN(C(=O)[C@@H]3CN(Cc4ccccc4)C[C@H]3c3ccc(Cl)cc3)CC2)c([C@@H](N)C(C)C)c1
Intrinsic activity [1]: 52%
Ki [2]: 36 nM

CC(C)[C@H](N)c1cccc(F)c1N1CCN(C(=O)[C@H]2CN(Cc3ccccc3)C[C@@H]2c2ccc(Cl)cc2)CC1
Intrinsic activity [1]: 3%
Ki [2]: 98 nM

CCCC(=O)N1C[C@@H](C(=O)N2CCN(c3ccc(C)cc3[C@@H](N)C(C)C)CC2)[C@H](c2ccc(Cl)cc2)C1
Intrinsic activity [1]: 14%
Ki [2]: 68 nM
